How the values were obtained:
[1] = target: T1, MLLT1 (Homo sapiens, UniProt Q03111); assay: MLLT1 degradation assay in MV4-11 cells (JESS chemiluminescent detection), three concentrations, 24 h; format: cell-based; details: with respect to DMSO control
T1 construct: host or cells: MV4-11
T1 sequence (Q03111 1-559): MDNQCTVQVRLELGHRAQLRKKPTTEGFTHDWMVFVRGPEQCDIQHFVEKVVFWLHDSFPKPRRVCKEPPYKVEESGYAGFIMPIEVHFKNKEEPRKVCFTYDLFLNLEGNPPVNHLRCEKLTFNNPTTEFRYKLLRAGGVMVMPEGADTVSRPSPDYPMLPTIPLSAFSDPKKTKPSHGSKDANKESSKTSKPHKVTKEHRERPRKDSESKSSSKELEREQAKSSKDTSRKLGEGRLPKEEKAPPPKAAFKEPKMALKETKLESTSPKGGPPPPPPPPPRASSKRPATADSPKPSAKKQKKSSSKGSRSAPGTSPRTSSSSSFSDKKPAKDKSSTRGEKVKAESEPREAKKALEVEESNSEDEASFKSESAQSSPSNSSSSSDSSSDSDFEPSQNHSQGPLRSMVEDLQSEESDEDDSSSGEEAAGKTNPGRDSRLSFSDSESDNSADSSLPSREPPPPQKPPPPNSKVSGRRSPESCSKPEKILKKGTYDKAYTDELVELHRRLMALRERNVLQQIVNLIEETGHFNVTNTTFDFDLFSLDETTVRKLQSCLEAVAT
Method in brief: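 MV4-11 cells treated 24 h at 37° C, 5% CO2 with 1000, 100 and 10 nM compound (0.1% DMSO final). MLLT1 quantified by automated capillary chemiluminescent immunodetection; band peak area expressed as % degradation relative to DMSO control.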

[2] = test system: MV4-11 cells; assay: MV4-11 cellular proliferative assay, Assay Format B (CTG 2.0, 168 h); format: cell-based; details: Homo sapiens, 168 h (7 days), CTG 2.0, read-out: IC50 (MV4-11 cellular proliferative assay, Assay format B)
Method in brief: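 MV4-11 cells seeded overnight in IMDM + 10% FBS, then exposed to 10-point, 3-fold dilutions from 1 uM or 100 nM top concentration (0.3% DMSO final) for 168 h at 37 °C. CTG 2.0 luminescence read; % viability vs DMSO control fitted by four-parameter logistic regression.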

Compound | MLLT1% Degradation @ 0.01 μM [1] | MLLT1% Degradation @ 0.1 μM [1] | MLLT1% Degradation @ 1 μM [1] | IC50 [2] [nM]
CN1CCC[C@@H]1c1[nH]c2cc(NC(=O)c3ccc(CCCCC#Cc4cccc5c4CN(C4CCC(=O)NC4=O)C5=O)cc3F)ncc2c1Cl (stereo partly drawn) [Example 113, N-(3-chloro-2-((R)-1-methylpyrrolidin-2-yl)-1H-pyrrolo[3,2-c]pyridin-6-yl)-4-(6-(2-(2,6-dioxopiperidin-3-yl)-1-oxoisoindolin-4-yl)hex-5-yn-1-yl)-2-fluorobenzamide] | A (Category A: A ≥ 75% degradation) | A (Category A: A ≥ 75% degradation) | A (Category A: A ≥ 75% degradation) | ≤ 100
COc1cc(CCCCC#Cc2cccc3c2CN(C2CCC(=O)NC2=O)C3=O)ccc1C(=O)Nc1cc2[nH]c([C@H]3CCCN3C)cc2cn1 (stereo partly drawn) [Example 115, 4-(6-(2-(2,6-dioxopiperidin-3-yl)-1-oxoisoindolin-4-yl)hex-5-yn-1-yl)-2-methoxy-N-(2-((R)-1-methylpyrrolidin-2-yl)-1H-pyrrolo[3,2-c]pyridin-6-yl)benzamide] | A (Category A: A ≥ 75% degradation) | A (Category A: A ≥ 75% degradation) | A (Category A: A ≥ 75% degradation) | ≤ 100
CN1CCC[C@@H]1c1cc2cnc(NC(=O)c3ccc(C4CCN(CC5CCN(c6cccc7c6CN(C6CCC(=O)NC6=O)C7=O)CC5)CC4)nc3)cc2[nH]1 (stereo partly drawn) [Example 119, 6-(1-((1-(2-(2,6-dioxopiperidin-3-yl)-1-oxoisoindolin-4-yl)piperidin-4-yl)methyl)piperidin-4-yl)-N-(2-((R)-1-methylpyrrolidin-2-yl)-1H-pyrrolo[3,2-c]pyridin-6-yl)nicotinamide] | B (Category B: 50% ≤ B < 75% degradation) | A (Category A: A ≥ 75% degradation) | A (Category A: A ≥ 75% degradation) | ≤ 100
COc1cc(N2CCN(CC3CCN(c4cccc5c4CN(C4CCC(=O)NC4=O)C5=O)CC3)CC2)cc(F)c1C(=O)Nc1cc2[nH]c([C@H]3CCCN3C)cc2cn1 (stereo partly drawn) [Example 120, 4-(4-((1-(2-(2,6-dioxopiperidin-3-yl)-1-oxoisoindolin-4-yl)piperidin-4-yl)methyl)piperazin-1-yl)-2-fluoro-6-methoxy-N-(2-((R)-1-methylpyrrolidin-2-yl)-1H-pyrrolo[3,2-c]pyridin-6-yl)benzamide] | B (Category B: 50% ≤ B < 75% degradation) | A (Category A: A ≥ 75% degradation) | C (Category C: 25% ≤ C < 50% degradation) | ≤ 100
CN1CCC[C@@H]1c1cc2cnc(NC(=O)c3ccc(OC4CCN(CC5CCN(c6ccc7c(c6)C(=O)N(C6CCC(=O)NC6=O)C7=O)CC5)CC4)cc3)cc2[nH]1 (stereo partly drawn) [Example 124, 4-((1-((1-(2-(2,6-dioxopiperidin-3-yl)-1,3-dioxoisoindolin-5-yl)piperidin-4-yl)methyl)piperidin-4-yl)oxy)-N-(2-((R)-1-methylpyrrolidin-2-yl)-1H-pyrrolo[3,2-c]pyridin-6-yl)benzamide] | B (Category B: 50% ≤ B < 75% degradation) | A (Category A: A ≥ 75% degradation) | A (Category A: A ≥ 75% degradation) | ≤ 100
CN1CCC[C@@H]1c1cc2cnc(NC(=O)c3ccc(OC4CCN(CC5CCN(c6cccc7c6CN(C6CCC(=O)NC6=O)C7=O)CC5)CC4)nc3)cc2[nH]1 (stereo partly drawn) [Example 125, 6-((1-((1-(2-(2,6-dioxopiperidin-3-yl)-1-oxoisoindolin-4-yl)piperidin-4-yl)methyl)piperidin-4-yl)oxy)-N-(2-((R)-1-methylpyrrolidin-2-yl)-1H-pyrrolo[3,2-c]pyridin-6-yl)nicotinamide] | A (Category A: A ≥ 75% degradation) | A (Category A: A ≥ 75% degradation) | A (Category A: A ≥ 75% degradation) | ≤ 100
CN1CCC[C@@H]1c1cc2cnc(NC(=O)c3ccc(N4CCN(Cc5ccc(-c6cccc7c6CN(C6CCC(=O)NC6=O)C7=O)cc5)CC4)nc3)cc2[nH]1 (stereo partly drawn) [Example 129, 6-(4-(4-(2-(2,6-dioxopiperidin-3-yl)-1-oxoisoindolin-4-yl)benzyl)piperazin-1-yl)-N-(2-((R)-1-methylpyrrolidin-2-yl)-1H-pyrrolo[3,2-c]pyridin-6-yl)nicotinamide] | B (Category B: 50% ≤ B < 75% degradation) | B (Category B: 50% ≤ B < 75% degradation) | C (Category C: 25% ≤ C < 50% degradation) | ≤ 100
CN1CCC[C@@H]1c1cc2cnc(NC(=O)c3ccc(CCCN4CCN(c5cccc6c5CN(C5CCC(=O)NC5=O)C6=O)CC4)cc3)cc2[nH]1 (stereo partly drawn) [Example 131, 4-(3-(4-(2-(2,6-dioxopiperidin-3-yl)-1-oxoisoindolin-4-yl)piperazin-1-yl)propyl)-N-(2-((R)-1-methylpyrrolidin-2-yl)-1H-pyrrolo[3,2-c]pyridin-6-yl)benzamide] | B (Category B: 50% ≤ B < 75% degradation) | A (Category A: A ≥ 75% degradation) | A (Category A: A ≥ 75% degradation) | ≤ 100
C[C@H]1CN(CC2CCN(c3cccc4c3CN(C3CCC(=O)NC3=O)C4=O)CC2)CCN1c1ccc(C(=O)Nc2cc3[nH]c([C@H]4CCCN4C)cc3cn2)cc1 (stereo partly drawn) [Example 132, 4-((2S)-4-((1-(2-(2,6-dioxopiperidin-3-yl)-1-oxoisoindolin-4-yl)piperidin-4-yl)methyl)-2-methylpiperazin-1-yl)-N-(2-((R)-1-methylpyrrolidin-2-yl)-1H-pyrrolo[3,2-c]pyridin-6-yl)benzamide] | B (Category B: 50% ≤ B < 75% degradation) | A (Category A: A ≥ 75% degradation) | B (Category B: 50% ≤ B < 75% degradation) | ≤ 100
CN1CCC[C@@H]1c1cc2cnc(NC(=O)c3ccc(N4CCC(OC5CCN(c6cccc7c6CN(C6CCC(=O)NC6=O)C7=O)CC5)CC4)cc3)cc2[nH]1 (stereo partly drawn) [Example 137, 4-(4-((1-(2-(2,6-dioxopiperidin-3-yl)-1-oxoisoindolin-4-yl)piperidin-4-yl)oxy)piperidin-1-yl)-N-(2-((R)-1-methylpyrrolidin-2-yl)-1H-pyrrolo[3,2-c]pyridin-6-yl)benzamide] | A (Category A: A ≥ 75% degradation) | A (Category A: A ≥ 75% degradation) | A (Category A: A ≥ 75% degradation) | ≤ 100
CN1CCC[C@@H]1c1cc2cnc(NC(=O)c3ccc(N4CCC(CCN5CCN(c6cccc7c6CN(C6CCC(=O)NC6=O)C7=O)CC5)CC4)nc3)cc2[nH]1 (stereo partly drawn) [Example 138, 6-(4-(2-(4-(2-(2,6-dioxopiperidin-3-yl)-1-oxoisoindolin-4-yl)piperazin-1-yl)ethyl)piperidin-1-yl)-N-(2-((R)-1-methylpyrrolidin-2-yl)-1H-pyrrolo[3,2-c]pyridin-6-yl)nicotinamide] | A (Category A: A ≥ 75% degradation) | A (Category A: A ≥ 75% degradation) | A (Category A: A ≥ 75% degradation) | ≤ 100
CN1CCC[C@@H]1c1cc2cnc(NC(=O)c3ccc(N4CCC(COC5CCN(c6cccc7c6CN(C6CCC(=O)NC6=O)C7=O)CC5)CC4)nc3)cc2[nH]1 (stereo partly drawn) [Example 140, 6-(4-(((1-(2-(2,6-dioxopiperidin-3-yl)-1-oxoisoindolin-4-yl)piperidin-4-yl)oxy)methyl)piperidin-1-yl)-N-(2-((R)-1-methylpyrrolidin-2-yl)-1H-pyrrolo[3,2-c]pyridin-6-yl)nicotinamide] | B (Category B: 50% ≤ B < 75% degradation) | A (Category A: A ≥ 75% degradation) | A (Category A: A ≥ 75% degradation) | ≤ 100
CN1CCC[C@@H]1c1cc2cnc(NC(=O)c3ccc(OCCN4CCC(c5cccc6c5CN(C5CCC(=O)NC5=O)C6=O)CC4)cc3)cc2[nH]1 (stereo partly drawn) [Example 141, 4-(2-(4-(2-(2,6-dioxopiperidin-3-yl)-1-oxoisoindolin-4-yl)piperidin-1-yl)ethoxy)-N-(2-((R)-1-methylpyrrolidin-2-yl)-1H-pyrrolo[3,2-c]pyridin-6-yl)benzamide] | A (Category A: A ≥ 75% degradation) | A (Category A: A ≥ 75% degradation) | A (Category A: A ≥ 75% degradation) | ≤ 100
